Measurements from PMC9942948 (Journal of medicinal chemistry, 2022).

How the values were obtained:
WT Polθ = WT Polθ (Homo sapiens, UniProt O75417); experiment: Differential Scanning Fluorimetry; type: binding; conditions: compound alone, no DNA
[1] = Mouse liver microsomal stability; type: in vitro ADME; conditions: liver microsomes
[2] = Metabolite identification in mouse microsomes; type: in vitro ADME
[3] = Metabolite identification in human microsomes; type: in vitro ADME
[4] = target: full-length Polθ (aa 1–2590), ATPase activity (Homo sapiens, UniProt O75417); experiment: Full-length Polθ ATPase activity; type: biochemical
[5] = tested on: Polθ-mediated MMEJ repair at AAVS1 locus in HCT116 WT cells; experiment: Cas9-induced double-strand DNA break assay; type: cell-based; conditions: Homo sapiens, HCT-116, read-out: potency in DSB repair of AAVS1 loci
[6] = tested on: MMEJ in 293T-Lig4−/−TLR1.1 cells; experiment: Traffic-light reporter assay; type: cell-based, human; conditions: HEK293 LIG4−/− cell line
in vitro = in vitro ADME, canine; conditions: dog, MDCK
[7] = Mouse PK, iv/po in CD1 mice; type: in vivo; conditions: female, whole blood, 2.5 mg/kg
[8] = tested on: HCT116 BRCA2+/+ xenograft tumors; experiment: HCT116 BRCA2+/+ xenograft efficacy; type: in vivo, mouse; conditions: 80 mg/kg BID PO, 21 days
[9] = tested on: HCT116 BRCA2−/− xenograft tumors; experiment: HCT116 BRCA2−/− xenograft efficacy; type: in vivo, mouse; conditions: 80 mg/kg BID PO, BRCA2-deficient HCT116
[10] = Tolerability in the xenograft study; type: in vivo
[11] = PK on days 1 and 7 of BID oral dosing in CD-1 nude mice; type: in vivo; conditions: Day 7 vs Day 1, BID oral
[12] = tested on: HCT116 BRCA2−/− xenograft tumor cells; experiment: PD markers by immunofluorescence in cells isolated from tumors; type: in vivo, mouse
Pol ε = Pol ε (Homo sapiens, UniProt Q07864); experiment: DNA polymerase selectivity, Pol ε
Pol λ = target: T1, Pol λ (Homo sapiens, UniProt Q9UGP5); experiment: DNA polymerase selectivity, Pol λ
T1 sequence (Q9UGP5 1-575): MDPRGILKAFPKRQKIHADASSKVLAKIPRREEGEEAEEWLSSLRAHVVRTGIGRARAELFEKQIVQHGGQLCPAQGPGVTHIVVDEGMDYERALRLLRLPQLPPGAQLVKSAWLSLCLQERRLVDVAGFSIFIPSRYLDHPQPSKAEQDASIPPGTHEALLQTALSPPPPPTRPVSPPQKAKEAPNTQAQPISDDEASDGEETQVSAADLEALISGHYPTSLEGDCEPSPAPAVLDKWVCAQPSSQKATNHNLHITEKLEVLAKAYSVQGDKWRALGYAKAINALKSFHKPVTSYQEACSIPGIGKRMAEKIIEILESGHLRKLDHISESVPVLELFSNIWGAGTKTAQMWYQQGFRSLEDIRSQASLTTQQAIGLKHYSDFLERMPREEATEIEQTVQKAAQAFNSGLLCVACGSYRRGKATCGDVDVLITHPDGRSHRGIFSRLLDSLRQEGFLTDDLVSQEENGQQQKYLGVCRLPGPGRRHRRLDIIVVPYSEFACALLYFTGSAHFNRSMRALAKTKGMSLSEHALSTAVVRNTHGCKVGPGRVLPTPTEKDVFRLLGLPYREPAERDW

Pol μ = Pol μ (Homo sapiens, UniProt Q9NP87); experiment: DNA polymerase selectivity, Pol μ
[13] = nude mice, 80 mg/kg BID PO, 21 days

Sequence of WT Polθ (O75417 whole entry): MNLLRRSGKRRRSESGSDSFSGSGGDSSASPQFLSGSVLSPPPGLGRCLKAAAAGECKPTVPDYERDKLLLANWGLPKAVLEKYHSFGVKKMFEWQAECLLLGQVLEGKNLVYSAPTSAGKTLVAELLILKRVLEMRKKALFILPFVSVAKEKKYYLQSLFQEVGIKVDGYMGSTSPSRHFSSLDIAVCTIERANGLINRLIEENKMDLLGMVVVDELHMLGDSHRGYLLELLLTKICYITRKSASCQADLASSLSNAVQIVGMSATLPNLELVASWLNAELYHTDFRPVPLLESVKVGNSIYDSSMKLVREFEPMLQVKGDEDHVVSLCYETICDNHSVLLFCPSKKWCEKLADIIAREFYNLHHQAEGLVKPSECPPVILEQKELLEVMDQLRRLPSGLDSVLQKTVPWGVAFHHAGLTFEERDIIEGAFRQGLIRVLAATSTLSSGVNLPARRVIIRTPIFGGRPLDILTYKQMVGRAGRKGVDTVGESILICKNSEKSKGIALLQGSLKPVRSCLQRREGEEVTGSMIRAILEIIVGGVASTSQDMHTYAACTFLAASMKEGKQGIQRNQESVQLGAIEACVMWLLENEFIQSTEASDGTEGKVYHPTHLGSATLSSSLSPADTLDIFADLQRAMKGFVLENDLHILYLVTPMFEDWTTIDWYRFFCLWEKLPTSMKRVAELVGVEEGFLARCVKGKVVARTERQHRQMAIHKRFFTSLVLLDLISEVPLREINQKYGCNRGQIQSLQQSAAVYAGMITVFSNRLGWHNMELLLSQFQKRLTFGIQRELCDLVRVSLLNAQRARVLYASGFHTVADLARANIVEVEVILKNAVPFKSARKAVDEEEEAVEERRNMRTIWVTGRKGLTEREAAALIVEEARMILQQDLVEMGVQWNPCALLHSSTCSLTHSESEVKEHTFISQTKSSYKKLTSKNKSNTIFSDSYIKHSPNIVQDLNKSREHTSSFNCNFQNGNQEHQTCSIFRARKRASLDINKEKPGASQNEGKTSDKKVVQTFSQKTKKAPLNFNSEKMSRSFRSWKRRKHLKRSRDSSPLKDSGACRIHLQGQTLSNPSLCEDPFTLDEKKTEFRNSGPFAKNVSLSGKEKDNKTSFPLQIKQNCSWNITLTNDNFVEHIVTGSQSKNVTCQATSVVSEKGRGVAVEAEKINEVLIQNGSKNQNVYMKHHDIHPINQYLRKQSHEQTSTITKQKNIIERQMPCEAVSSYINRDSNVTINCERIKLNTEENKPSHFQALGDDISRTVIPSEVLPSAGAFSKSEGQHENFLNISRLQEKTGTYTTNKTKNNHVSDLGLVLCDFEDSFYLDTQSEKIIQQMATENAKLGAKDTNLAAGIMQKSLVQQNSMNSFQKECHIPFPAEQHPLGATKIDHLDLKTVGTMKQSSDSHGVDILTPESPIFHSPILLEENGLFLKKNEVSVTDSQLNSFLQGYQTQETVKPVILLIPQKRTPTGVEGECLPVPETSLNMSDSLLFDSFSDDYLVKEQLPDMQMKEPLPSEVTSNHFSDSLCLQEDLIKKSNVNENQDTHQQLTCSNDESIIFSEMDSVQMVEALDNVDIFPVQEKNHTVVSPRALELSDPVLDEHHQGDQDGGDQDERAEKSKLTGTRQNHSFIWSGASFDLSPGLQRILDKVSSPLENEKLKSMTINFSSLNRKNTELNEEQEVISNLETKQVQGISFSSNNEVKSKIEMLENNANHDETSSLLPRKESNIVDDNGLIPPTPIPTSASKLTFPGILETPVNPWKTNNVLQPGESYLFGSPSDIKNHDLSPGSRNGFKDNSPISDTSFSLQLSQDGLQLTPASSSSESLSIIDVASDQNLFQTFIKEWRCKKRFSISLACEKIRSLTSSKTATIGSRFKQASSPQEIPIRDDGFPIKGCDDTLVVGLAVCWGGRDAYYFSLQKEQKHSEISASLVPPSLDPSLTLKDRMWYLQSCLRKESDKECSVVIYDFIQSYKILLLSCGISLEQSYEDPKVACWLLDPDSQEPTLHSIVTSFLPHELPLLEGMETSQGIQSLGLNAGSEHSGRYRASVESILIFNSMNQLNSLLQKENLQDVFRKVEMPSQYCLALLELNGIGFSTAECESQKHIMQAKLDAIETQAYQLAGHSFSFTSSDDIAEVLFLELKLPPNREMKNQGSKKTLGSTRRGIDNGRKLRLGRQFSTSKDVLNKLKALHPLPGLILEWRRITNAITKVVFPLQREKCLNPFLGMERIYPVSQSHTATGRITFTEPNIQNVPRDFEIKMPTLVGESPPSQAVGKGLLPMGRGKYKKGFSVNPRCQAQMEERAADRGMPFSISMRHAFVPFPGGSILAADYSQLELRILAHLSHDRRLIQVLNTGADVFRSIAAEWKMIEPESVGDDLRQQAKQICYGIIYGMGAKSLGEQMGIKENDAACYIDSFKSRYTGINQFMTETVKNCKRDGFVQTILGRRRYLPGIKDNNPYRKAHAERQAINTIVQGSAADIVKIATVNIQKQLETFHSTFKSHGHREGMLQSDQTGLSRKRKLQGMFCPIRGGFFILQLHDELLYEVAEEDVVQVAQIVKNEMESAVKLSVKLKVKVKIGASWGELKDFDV
Sequence of Pol ε (Q07864 whole entry): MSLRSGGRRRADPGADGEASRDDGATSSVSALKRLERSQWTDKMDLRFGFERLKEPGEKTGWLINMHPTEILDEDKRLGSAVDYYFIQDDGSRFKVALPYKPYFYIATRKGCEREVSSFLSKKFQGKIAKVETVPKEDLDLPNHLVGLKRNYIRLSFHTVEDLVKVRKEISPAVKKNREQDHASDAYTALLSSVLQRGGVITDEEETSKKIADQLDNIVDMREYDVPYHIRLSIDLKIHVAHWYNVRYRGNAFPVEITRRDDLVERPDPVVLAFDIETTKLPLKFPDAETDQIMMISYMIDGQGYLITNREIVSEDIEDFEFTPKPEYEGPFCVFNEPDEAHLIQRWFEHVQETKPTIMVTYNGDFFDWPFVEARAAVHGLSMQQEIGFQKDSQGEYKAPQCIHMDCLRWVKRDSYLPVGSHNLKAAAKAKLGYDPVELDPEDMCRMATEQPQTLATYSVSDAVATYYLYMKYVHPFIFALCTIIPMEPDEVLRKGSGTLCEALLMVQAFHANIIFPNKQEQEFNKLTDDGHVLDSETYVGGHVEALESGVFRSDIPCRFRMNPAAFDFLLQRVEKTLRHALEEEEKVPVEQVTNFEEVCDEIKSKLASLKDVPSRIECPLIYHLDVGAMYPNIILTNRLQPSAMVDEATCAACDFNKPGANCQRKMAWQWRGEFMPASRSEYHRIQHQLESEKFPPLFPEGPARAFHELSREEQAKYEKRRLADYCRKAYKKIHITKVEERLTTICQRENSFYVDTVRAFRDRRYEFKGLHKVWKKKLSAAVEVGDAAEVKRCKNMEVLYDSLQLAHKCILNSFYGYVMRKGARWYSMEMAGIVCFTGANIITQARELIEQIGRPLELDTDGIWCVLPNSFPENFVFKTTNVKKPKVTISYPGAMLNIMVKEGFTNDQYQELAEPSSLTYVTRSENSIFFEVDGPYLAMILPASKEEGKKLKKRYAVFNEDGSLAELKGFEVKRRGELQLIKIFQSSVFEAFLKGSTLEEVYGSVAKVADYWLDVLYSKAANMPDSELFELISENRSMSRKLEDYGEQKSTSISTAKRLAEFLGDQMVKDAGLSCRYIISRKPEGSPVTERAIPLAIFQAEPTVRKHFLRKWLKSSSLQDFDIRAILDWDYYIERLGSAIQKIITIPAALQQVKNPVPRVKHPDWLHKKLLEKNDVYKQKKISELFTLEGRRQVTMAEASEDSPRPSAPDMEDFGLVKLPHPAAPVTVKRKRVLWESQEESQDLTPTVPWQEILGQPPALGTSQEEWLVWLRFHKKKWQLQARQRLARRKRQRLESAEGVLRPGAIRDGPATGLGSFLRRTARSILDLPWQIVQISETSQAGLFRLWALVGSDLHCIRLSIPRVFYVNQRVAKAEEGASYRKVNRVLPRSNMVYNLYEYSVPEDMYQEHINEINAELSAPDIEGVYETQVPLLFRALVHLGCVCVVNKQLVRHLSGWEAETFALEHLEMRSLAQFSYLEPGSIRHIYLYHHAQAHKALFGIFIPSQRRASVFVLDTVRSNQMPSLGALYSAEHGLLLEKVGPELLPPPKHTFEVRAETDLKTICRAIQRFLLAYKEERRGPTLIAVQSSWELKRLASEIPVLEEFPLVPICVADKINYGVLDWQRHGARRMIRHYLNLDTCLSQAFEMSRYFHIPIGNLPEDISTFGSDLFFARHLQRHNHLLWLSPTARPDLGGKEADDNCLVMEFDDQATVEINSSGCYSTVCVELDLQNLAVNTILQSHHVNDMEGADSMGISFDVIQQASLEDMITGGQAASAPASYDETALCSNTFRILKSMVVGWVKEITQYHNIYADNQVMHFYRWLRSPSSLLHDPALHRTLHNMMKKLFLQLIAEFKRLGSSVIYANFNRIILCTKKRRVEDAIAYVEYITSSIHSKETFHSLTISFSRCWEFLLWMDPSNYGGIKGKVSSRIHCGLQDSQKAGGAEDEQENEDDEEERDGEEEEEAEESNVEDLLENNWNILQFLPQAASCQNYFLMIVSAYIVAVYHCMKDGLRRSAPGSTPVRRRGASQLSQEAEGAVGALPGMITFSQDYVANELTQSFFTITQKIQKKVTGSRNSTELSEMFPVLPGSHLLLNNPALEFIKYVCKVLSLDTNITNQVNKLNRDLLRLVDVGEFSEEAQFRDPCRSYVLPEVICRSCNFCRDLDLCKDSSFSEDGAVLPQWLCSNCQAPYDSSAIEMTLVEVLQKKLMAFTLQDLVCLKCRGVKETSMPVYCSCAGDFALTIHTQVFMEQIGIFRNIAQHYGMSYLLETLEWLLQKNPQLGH
Sequence of full-length Polθ (aa 1–2590), ATPase activity (O75417 whole entry, the tested form may be a part): as the sequence (O75417 whole entry) above

For `CC1CCc2nn(CC(=O)N(C)c3ccccc3)c(C(F)(F)F)c21` (stereo not drawn) [Compound 9], which “thermal stabilization of WT Polθ” value (WT Polθ) is on record?
Its value is “did not show any thermal stabilization”.

For `CN(C(=S)Cn1nc2c(c1C(F)(F)F)CCC2)c1ccccc1` [Compound 14], which “thermal stabilization of WT Polθ” value (WT Polθ) is on record?
Its value is “did not show any thermal stabilization”.

For `CN(C(=O)Cc1ccc(C(F)(F)F)cc1C(F)(F)F)c1ccccc1` [Compound 15], which microsomal CLint [1] is on record?
The microsomal CLint was > 555 µL/min/mg.

And the “major routes of metabolism” value [2]?
The value was “N-demethylation and hydroxylation of the phenyl ring”.

What about the “major routes of metabolism” value [3] of the same compound?
Its value is “N-demethylation and hydroxylation of the phenyl ring”.

For `Nc1ccc(C#CCN(C(=O)Cc2ncc(C(F)(F)F)cc2C(F)(F)F)c2ccc(F)cc2)nn1` [RP-6685, N-[3-(6-Aminopyridazin-3-yl)prop-2-ynyl]-2-[3,5-bis(trifluoromethyl)-2-pyridyl]-N-(4-fluorophenyl)acetamide], which “activity on the ATPase activity of full-length Polθ” value [4] is on record?
Its value is “inactive”.

And the IC50 [5]?
Its IC50 is 500 nM.

What about the “effect on MMEJ in TLR assay” value [6] of the same compound?
The value was “dose-dependent decrease in MMEJ”.

What about the Papp (in vitro) of the same compound?
Its Papp is 6.2 ×10⁻⁶ cm/s.

And the clearance [7]?
The clearance was 36.8 mL/min/kg.

What about the tumor growth inhibition [8] of the same compound?
Its tumor growth inhibition is “no tumor growth inhibition”.

And the “difference to vehicle by Day 21” value [9]?
The value was “not statistically significant”.

And the MTD at 21 days ([10]; female, CD1 Nude, mouse, in vivo, po, 80 mg/kg BID)?
The MTD at 21 days was 80 mg/kg.

And the body weight change [10, 13]?
The body weight change was “no significant body weight loss”.

And the tolerability [10, 13]?
Its tolerability is “well tolerated”.

What about the “decline of exposure over the week of dosing” value [11] of the same compound?
Its value is 55 – 67%.

What about the “PD markers micronuclei and γH2AX” value [12] of the same compound?
The value was “modest trend towards increased micronuclei and γH2AX”.

What about the IC50 (Pol ε) of the same compound?
The IC50 was > 100000 nM.

What about the “activity on Pol ε” value (Pol ε) of the same compound?
Its value is “inactive”.

And the “activity on Pol λ” value (Pol λ)?
The value was “inactive”.

What about the “activity on Pol μ” value (Pol μ) of the same compound?
Its value is “inactive”.
